# According to patent publication US20030176494A1, “Novel coumarin and chromene compounds and methods of preparation and use thereof for treating or preventing viral infections” (priority 2001, published 2003):
# Where two headings read alike, the source gives them in different places.
# How the values were obtained:
# HIV = experiment: Anti-HIV evaluation by MTT-tetrazolium method (inhibition of CPE in MT-2 / CEM-SS cells); format: cell-based; conditions: Human immunodeficiency virus 1, CEM-SS; read-out: Antiviral Activities (EC50) HIV
# Method: This example illustrates the anti-HIV activity of various coumarin and chromene compounds which were evaluated using the published MTT-tetrazolium methods^8. Retroviral agents AZT and DDC were used as controls for comparison purposes.
# The cells used for screening were the MT-2 and the human T4-lymphoblastoid cell line, CEM-SS, and were grown in RPMI 1640 medium supplemented with 10% fetal (v/v) heat-inactivated fetal calf serum and also containing 100 units/mL penicillin, 100 μg/mL streptomycin, 25 mM HEPES and 20 μg/mL gentamicin. The medium used for dilution of drugs and maintenance of cultures during the assay was the same as above. The HTLV-IIIB and HTLV-RF were propagated in CEM-SS. The appropriate amounts of the pure compounds for anti-HIV evaluations were dissolved in DMSO, then diluted in medium to the desired initial concentration. The concentrations (M medium) employed were […]; 0.001 μM; 0.0032 μM; 0.01 μM; 0.032 μM; 0.1 μM; 0.32 μM; 1 μM; 3.2 μM; 10 μM; 32 μM; and 100 μM. Each dilution was added to plates in the amount of 100 μL/well. Drugs were tested in triplicate wells per dilution with infected cells while in duplicate wells per dilution with uninfected cells for evaluation of cytotoxicity. On day 6 (CEM-SS cells) and day 7 (MT-2 cells) post-infection, the viable cells were measured with a tetrazolium salt, MTT (5 mg/mL), added to the test plates. A solution of 20% SDS in 0.001 N HCl is used to dissolve the MTT formazan produced. The optical density value was a function of the amount of formazan produced which was proportional to the number of viable cells. The percent inhibition of CPE per drug concentration was measured as a test over control and expressed in percent (T/C %).
# HBV = HBV replication in cultures of 2.2.15 cells (HBV DNA blot hybridization); format: cell-based; conditions: Hepatitis B virus; read-out: Antiviral Activities (EC50) HBV
# Method: Test compounds are then added daily for a continuous 9 day period. Culture medium (changed daily during the treatment period) is collected and stored for analysis of extracellular (virion) HBV DNA after 0, 3, 6, and 9 days of treatment. Treated cells are lysed 24 hours following day 9 of treatment for the analysis of intracellular HBV genomic forms. HBV DVA is then analyzed in a quantitative and qualitative manner for overall levels of HBV DNA (both extracellular and intracellular DNA) and the relative rate of HBV replication (intracellular DNA).
# Both intracellular and extracellular HBV DNA are analyzed in order to (i) allow for verification of compound efficacy and (ii) provide possible data on the target site in the HBV replication pathway for the compound from examination of the pattern of viral replicative forms. The culture medium is changed daily during the treatment period to (i) prevent the buildup of potentially toxic metabolites derived from test compounds and (ii) provide an analysis of HBV virion production during discrete 24-hour intervals which enables a quantitative comparison of any effect on virion production.
# The analysis of HBV DNA is performed using blot hybridization techniques (Southern and slot blot) and [^32P]-labeled HBV-specific probes. HBV DNA levels are measured by comparison to known amounts of HBV DNA standards applied to every nitrocellulose membrane (gel or slot blot). An AMBIS beta scanner, which measures the radioactive decay of the hybridized probes directly from the nitrocellulose membranes, is used for the quantitative analysis. Standard curves, generated by multiple analyses, are used to correlate CPM measurements made by the beta scanner with relative levels of target HBV DNA. The levels of HBV virion DNA released into the culture medium are analyzed by a slot blot hybridization procedure. HBV DNA levels are then compared to those at Day 0 to determine the effect of drug treatment.
# The levels of RI and episomal monomers are used as an indicator of the relative level of HBV replication. Integrated HBV DNA is used to normalize the relative amounts of DNA in each lane because the levels of this class of HBV DNA would be expected to remain constant on a per cell basis. […] Inhibition of HBV DNA replication is indicated by the loss of RI without changes in the level of integrated HBV DNA.
# Measles Virus = experiment: Measles virus antiviral assay (CPE inhibition, neutral red uptake, virus yield); format: cell-based, Measles virus strain CC; conditions: Measles morbillivirus
# [1] = system: Respiratory Syncytial Virus; experiment: Respiratory syncytial virus antiviral assay (CPE inhibition, neutral red uptake); format: cell-based, Respiratory syncytial virus strain Utah 89; conditions: human respiratory syncytial virus
# VZV = VZV plaque reduction assay in human foreskin fibroblast cells; format: cell-based, Varicella Zoster Virus (Ellen strain); conditions: Human alphaherpesvirus 3, Fibroblast; read-out: Antiviral Activities (EC50) VZV
# Method: [table] Two days prior to use, HFF cells are plated into six-well plates and incubated at 37° C. with 5% CO2 and 90% humidity. On the date of assay, the drug is made up at twice the desired concentration in 2×MEM and then serially diluted 1:5 in 2×MEM using six concentrations of drug. […] The media is then aspirated from the wells and 0.2 mL of virus is added to each well in duplicate with 0.2 mL of media being added to drug toxicity wells. The plates are then incubated for one hour with shaking every fifteen minutes. […] The drug agarose mixture is applied to each well in 2 mL volume and the plates then incubated for three days, after which the cells were stained with a 1.5% solution of neutral red. At the end of 4-6 hr incubation period, the stain is aspirated, and plaques counted using a stereomicroscope at 10× magnification. The procedure is essentially the same as for the HSV plaque assay described above with two exceptions: 1. After addition of the drug, the plates are incubated for ten days. 2.
# EBV = EBV assay: superinfection of Raji or Daudi cells with P3HR-1, immunofluorescence for EA and VCA; format: cell-based, Epstein-Barr Virus (P3HR-1); conditions: human gammaherpesvirus 4; read-out: Antiviral Activities (EC50) EBV
# Text: There are two prototypes of infectious EBV. One is exemplified by the virus derived from supernatant fluids of the P3HR-1cell line. This cell line produces nontransforming virus that causes the production of early antigen (EA) after primary infection or superinfection of B cell lines. The other prototype is exemplified by the B-95-8 virus. This virus immortalized cord blood lymphocytes and induced tumors in marmosets. […] The virus used in our assays is P3HR-1.
# Ramos is an exceptional B cell line derived from Burkitt's lymphoma tumor but containing no detectable EBV genome copies and is EBNA negative. Ramos/AW was obtained by in vitro infection of Ramos with the P3HR-1 virus and contains one resident EBV genome copy/cell. Raji is a Burkitt's lymphoma cell line containing 60 EBV genomes/cell, and will be the primary cell used for screening antiviral activity against EBV EA expression. Daudi is a low level producer that contains 152 EBV genome copies/cell. It spontaneously expresses EBV EA in 0.25%-0.5% of the cells. It will be used in follow-up studies to confirm activity. These cell lines respond to superinfection by EBV by expressing EA(D), EA(R), and VCA. All cell lines are maintained in RPMI-1640 medium supplemented by 10% FCS, L-glutamine and 100 μg/mL gentamicin. The cultures are fed twice weekly and the cell concentration adjusted to 3×10^5/mL. The cells are kept at 37° C. in a humidified atmosphere with 5% CO2.
# Cells are infected with the P3HR-1 strain of EBV and the drugs to be tested are added after adsorption (45 minutes at 37° C.) and washing of the cell cultures. The cultures are incubated for two days in complete medium to allow viral gene expression. Following the 48 hr incubation period, the number of cells of each sample are counted and smears made. Monoclonal antibodies to the different EA components and VCA are then added to the cells incubated and washed. This is followed by a fluorescein conjugated rabbit anti-mouse Ig antibody; and the number of fluorescence positive cells in the smears are counted. The total number of cells in the cultures positive for EA or VCA are then calculated and compared.
# Rhinovirus = Rhinovirus antiviral assay (CPE inhibition, neutral red uptake, virus yield); format: cell-based; conditions: Enterovirus
# [2] = CPE inhibition, read-out: Antiviral Activities (EC50) Measles (CPE)
# [3] = neutral red (NR) dye uptake, read-out: Antiviral Activities (EC50) Measles (NR)
# [4] = readout not stated, read-out: Antiviral Activities (EC50) Respiratory Syncitial
# [5] = readout not stated, read-out: Antiviral Activities (EC50) Rhinovirus
# [6] = CPE inhibition, read-out: Antiviral Activities (EC50) Rhinovirus (CPE)
# [7] = neutral red (NR) dye uptake, read-out: Antiviral Activities (EC50) Rhinovirus (NR)
SMILES,EC50 (HIV) [µg/mL],EC50 (HBV) [µg/mL],EC50 (Measles Virus; [2]) [µg/mL],EC50 (Measles Virus; [3]) [µg/mL],EC50 (Measles Virus; read-out: Antiviral Activities (EC50) Measles (virus yield)) [µg/mL],"EC50 [1, 4] [µg/mL]",EC50 (VZV) [µg/mL],EC50 (EBV) [µg/mL],"EC50 (Measles Virus; readout not stated, read-out: Antiviral Activities (EC50) Measles) [µg/mL]",EC50 (Rhinovirus; [5]) [µg/mL],"EC50 ([1]; CPE inhibition, read-out: Antiviral Activities (EC50) Respiratory Syncitial (CPE)) [µg/mL]","EC50 ([1]; neutral red (NR) dye uptake, read-out: Antiviral Activities (EC50) Respiratory Syncitial (NR)) [µg/mL]",EC50 (Rhinovirus; [6]) [µg/mL],EC50 (Rhinovirus; [7]) [µg/mL]
CCCc1cc(=O)oc2cc(OC(=O)CC)c3c(c12)OC(C)(C)C=C3,> 2,> 10,0.4,0.3,0.32,1,> 4,,,,,,,
CCCc1cc(=O)oc2cc(OC(=O)C(C)(C)C)c3c(c12)OC(C)(C)C=C3,> 7,> 10,0.2,0.6,,,> 100,0.39,,,,,,
CCCc1cc(=O)oc2cc(OS(=O)(=O)c3ccc(C)cc3)c3c(c12)OC(C)(C)C=C3,1.6,> 10,,,,> 100,> 100,0.2,> 100,> 100,,,,
CCCc1cc(=O)oc2cc(O)c3c(c12)OC(C)(C)C=C3,,> 10,0.5,0.6,,1,89,> 50,,,,,,
CCCc1cc(=O)oc2cc(OC(=O)CC)cc(O)c12,> 5,> 3,2,1,,3,> 20,> 50,,> 100,,,,
CCCc1cc(=O)oc2cc(OS(=O)(=O)c3ccc(C)cc3)cc(O)c12,> 2,2.1,1,1,,,> 100,2.1,,,3,2,1,2
CCCc1cc(=O)oc2cc(OC(=O)C(C)(C)C)cc(OC(=O)C(C)(C)C)c12,2.2,> 4,2,3,,> 100,5.6,3.7,,20,,,,
CCCc1cc(=O)oc2cc(OCC(C)(C)C(=O)O)c3c(c12)OC(C)(C)C=C3,> 8,2.6,> 100,> 100,,> 100,,,,,,,10,1
CCCc1cc(=O)oc2cc(OC(C)CCO)c3c(c12)OC(C)(C)C=C3 (stereo not drawn),1.5,,,,,,,,,,,,,
